Test results reported in patent publication US20250011368A1, “DLL3 TARGETING PEPTIDES AND CONSTRUCTS THEREOF” (MARIANA ONCOLOGY INC., priority 2023, published 2025).
Numbered stars: 1 amine (or outer) side, 2 acyl side, 3 side chain; on linkers, the order of the positions; unused ones are H or OH. Bridge positions count the residues as written; N and C are the ends. Square brackets hold non-standard residues; d marks the D form. Side chains are listed from the residue outwards. Peptide text beside a SMILES is read from it. * marks the point of attachment. X1 = O=C(O)CN1CCN(CC(=O)O)CCN(CC(=O)NCCCC[C@@H](NC(=O)CCOCCOCCOCCOCCOCCOCCOCCOCCOCCOCCOCCOCCNC(=O)Cc2ccc(Br)cc2)C(=O)NCCOCCOCCOCCOCCOCCOCCOCCOCC(=O)*)CCN(CC(=O)O)CC1; PEG24 = NCCOCCOCCOCCOCCOCCOCCOCCOCCOCCOCCOCCOCCOCCOCCOCCOCCOCCOCCOCCOCCOCCOCCOCCOCCC(=O)O; Ala(piperidin-4-yl) = O=C([C@H](CC1CCN([*:3])CC1)N[*:1])[*:2]; DOTA = O=C(O)CN1CCN(CC(=O)O)CCN(CC(=O)*)CCN(CC(=O)O)CC1; γGlu = O=C(O)[C@H](CCC(=O)[*:2])N[*:1]; 2Nal = N[C@@H](Cc1ccc2ccccc2c1)C(=O)O; Palmitoyl = CCCCCCCCCCCCCCCC(=O)*; 3Pal = N[C@@H](Cc1cccnc1)C(=O)O; Chg = N[C@H](C(=O)O)C1CCCCC1; NMeNle = CCCC[C@H](NC)C(=O)O; Ahx = NCCCCCC(=O)O

Columns and labels:
[1] = molecular target: T1, human DLL3 (Homo sapiens, UniProt Q9NYJ7); experiment: Affinity determination by Surface Plasmon Resonance (SPR); type: binding; conditions: 25° C., biotinylated human DLL3 immobilized on streptavidin sensor chip, 1:1 binding model; read-out: SPR KD
T1 sequence (Q9NYJ7 27-618): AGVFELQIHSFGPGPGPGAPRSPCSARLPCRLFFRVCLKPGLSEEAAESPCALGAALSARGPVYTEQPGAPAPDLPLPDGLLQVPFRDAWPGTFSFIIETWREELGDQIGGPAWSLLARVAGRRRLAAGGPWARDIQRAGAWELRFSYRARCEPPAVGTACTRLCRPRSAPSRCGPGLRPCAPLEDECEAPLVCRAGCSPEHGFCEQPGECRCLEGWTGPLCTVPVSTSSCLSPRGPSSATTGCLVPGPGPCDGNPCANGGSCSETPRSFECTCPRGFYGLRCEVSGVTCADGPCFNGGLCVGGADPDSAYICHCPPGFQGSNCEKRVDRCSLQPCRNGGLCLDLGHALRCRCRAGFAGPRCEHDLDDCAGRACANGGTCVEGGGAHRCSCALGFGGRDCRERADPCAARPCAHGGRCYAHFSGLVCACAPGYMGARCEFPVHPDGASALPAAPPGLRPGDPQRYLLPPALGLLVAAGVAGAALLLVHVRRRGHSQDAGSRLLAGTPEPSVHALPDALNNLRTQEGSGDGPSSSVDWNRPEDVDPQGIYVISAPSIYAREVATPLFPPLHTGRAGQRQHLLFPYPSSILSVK
Method in brief: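 Biotinylated human DLL3 was captured on a streptavidin chip with a reference surface. Compounds at several concentrations were injected at 100 μL/minute in phosphate buffer (137 mM NaCl, 2.7 mM KCl, 0.05% P20, 2% DMSO). Affinity and kinetics came from 1:1 model fits of the sensorgrams.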

[2] = test system: SHP-77 tumors; experiment: Ex vivo biodistribution of radiolabeled peptides in nude mice bearing SHP-77 tumors; conditions: [177Lu]Lu labelling, nude mice bearing SHP-77 tumors (n = 3), 24 hours post-injection
Experimental: Mice were intravenously injected (via the lateral tail vein) with a bolus dose of the radiolabeled peptides for ex vivo biodistribution studies when tumor volumes were in range of 200-400 mm^3 for xenograft mice and when age of the mice was 5-7 weeks for tumor naïve mice studies. To assess the amount of radionuclide injected into individual mice the syringe was assayed in a dose calibrator before and after injection for [^177Lu]Lu-peptide.
Mice were euthanized at pre-determined time points and selected tissues were resected and collected into pre-weighed tubes. The tubes were then reweighed post resection, the difference giving the weight of each tissue. Radioactivity in each tissue was measured using a gamma counter. Counts were decay corrected to the time of injection and percentage of injected activity per gram (% IA/g) was calculated for each tissue based on the injected activity into each individual mouse. Injected activity was converted to counts based on the sensitivity of the gamma counter. The counts in tissue were then converted to the percentage of injected activity and this was divided by the mass of tissue to give % IA/g.

[3] = test system: CT26.DLL3 cells; experiment: Cell binding (total uptake) of [177Lu]Lu-test peptide, CT26.DLL3 cells; type: cell-based; conditions: 1 hour at 37° C.
Experimental: [^177Lu]LuCl3 was received from venders in HCl solution. For every mCi of [^177Lu]LuCl3 added to the reaction vial (1.5 mL Eppendorf vial), ammonium acetate buffer (0.2 M, pH 4.9, 100 μL, containing 1% w/v ascorbic acid and 6% v/v ethanol) and peptide conjugate (1 nmol). A peptide conjugate of the present disclosure is also referred to herein as a “chelator-peptide”. The pH of the solution was determined to be approximately 5 by using pH strips. The reaction vial was incubated at 80° C., 700 RPM for 17-20 minutes. A sample from the reaction was analyzed by RP-HPLC using an Agilent Infinity II 1260 HPLC to determine reaction completion and radiochemical purity of [^177Lu]Lu-chelator-peptide. HPLC conditions: Waters XBridge BEH C18 Column, 130 Å, 3.5 um, 4.6 mm×250 mm; mobile phase: Solvent A=water (with 0.1% formic acid), solvent B=acetonitrile (with 0.1% formic acid). Gradients: 25-45% B in 10 minutes, 45-65% B in 12 minutes, 65-90% in 6 minutes at a flow rate of 0.5 mL/minute. Required amounts of the product was formulated in 1% PBSA for cell studies.
The study was conducted using SHP-77, CT26.WT, and CT26.DLL3 cells (Table 7) Adherent cell studies: The cells were cultured in appropriate culture media (20 mL) in tissue culture treated T150 flasks at 37° C. and 5% CO2. Adherent cells were detached (60-70% confluent) using 5 mL Versene at 37° C. for 3 minutes. After confirming the viability using countess and count of detached cells using Trypan blue, the cells were centrifuged at 4° C. for 5 minutes (1,000 rpm). The cell pellet obtained was washed once with PBS and resuspended in 1% PBSA to obtain the desired cell concentration (5-25 million cells/mL).
Cell numbers used for the assay were in the range of 5 million cells/condition −25 million cells/condition.
Total uptake: Cells were incubated with 300 μL (0.8 μCi) of the incubation buffer (containing radiolabeled peptide [^177Lu] Lu-test peptide) for 1 hour at 37° C. (Table 8). Post incubation, the cells were pelleted and washed 2 times using cold PBS+1% BSA. The supernatant and washes were combined and counted together as “unbound fraction” in a gamma counter. The cells were then resuspended in 300 μL of 1% PBS+1% BSA and counted in the gamma counter as “bound fraction”.
In these Tables, “A” represents %≤25; “B” represents 25<%≤50; “C” represents %>50.

Row | Molecule | Kd [1] | kidney uptake (% IA/g) [2] | tumor uptake (% IA/g) [2] | % Binding [3]
1 | CC[C@H](C)[C@H](NC(=O)[C@@H](NC(=O)[C@H](Cc1c[nH]c2ccccc12)NC(C)=O)[C@@H](C)O)C(=O)N[C@H]1CSSC[C@@H](C(=O)N[C@@H](Cc2c[nH]c3ccccc23)C(=O)N2CCC[C@H]2C(=O)N[C@H](CCCCNC(=O)CCCCCNC(=O)CN2CCN(CC(=O)O)CCN(CC(=O)O)CCN(CC(=O)O)CC2)C(N)=O)NC(=O)[C@H](CC(=O)O)NC(=O)[C@H](Cc2cnc[nH]2)NC(=O)[C@H](Cc2c[nH]c3ccccc23)NC(=O)[C@H](CC(N)=O)NC(=O)[C@H](CC(N)=O)NC1=O [compound 47, Ac-W-T-I-C(3)-N-N-W-H-D-C(3)-W-P-(D-Lys)-Ahx-DOTA-NH2] (Ac-WTICNNWHDCWP[dK]([Ahx-DOTA])-NH2; disulfide 4-10) | 1 to 10 nM | D (% IA/g > 10 in kidney) | A (0 < % IA/g ≤ 5 in tumor) | 
2 | CC[C@H](C)[C@H](NC(=O)[C@@H](NC(=O)[C@H](Cc1c[nH]c2ccccc12)NC(C)=O)[C@@H](C)O)C(=O)N[C@H]1CSSC[C@@H](C(=O)N[C@@H](Cc2c[nH]c3ccccc23)C(=O)N2CCC[C@H]2C(=O)N[C@H](CCCCNC(=O)CN2CCN(CC(=O)O)CCN(CC(=O)O)CCN(CC(=O)O)CC2)C(N)=O)NC(=O)[C@H](CC(=O)O)NC(=O)[C@H](CCCCN)NC(=O)[C@H](Cc2ccc3ccccc3c2)NC(=O)[C@H](CC(N)=O)NC(=O)[C@H](CC(N)=O)NC1=O [compound 237, Ac-W-T-I-C(3)-N-N-(2Nal)-K-D-C(3)-W-P-[D-Lys(DOTA)]-NH2] (Ac-WTICNN[2Nal]KDCWP[dK](DOTA)-NH2; disulfide 4-10) | < 1 nM |  |  | A (%≤25)
3 | CC[C@H](C)[C@H](NC(=O)[C@@H](NC(=O)[C@H](Cc1c[nH]c2ccccc12)NC(C)=O)[C@@H](C)O)C(=O)N[C@H]1CSSC[C@@H](C(=O)N[C@@H](Cc2c[nH]c3ccccc23)C(=O)N2CCC[C@H]2C(=O)N[C@H](CCCCNC(=O)COCCOCCOCCOCCOCCOCCOCCOCCNC(=O)[C@@H](CCCCNC(=O)CN2CCN(CC(=O)O)CCN(CC(=O)O)CCN(CC(=O)O)CC2)NC(=O)CCOCCOCCOCCOCCOCCOCCOCCOCCOCCOCCOCCOCCNC(=O)Cc2ccc(Br)cc2)C(N)=O)NC(=O)[C@H](CC(=O)O)NC(=O)[C@H](Cc2c[nH]cn2)NC(=O)[C@H](Cc2ccc3ccccc3c2)NC(=O)[C@H](CC(N)=O)NC(=O)[C@H](CC(N)=O)NC1=O [compound 252, Ac-W-T-I-C(3)-N-N-(2Nal)-H-D-C(3)-W-P-{D-Lys[PEG8-D-Lys(DOTA)-PEG12-COCH2Ph-4Br]}-NH2] (Ac-WTICNN[2Nal]HDCWP[dK](X1)-NH2; disulfide 4-10) |  | D (% IA/g > 10 in kidney) | A (0 < % IA/g ≤ 5 in tumor) | 
4 | CC[C@H](C)[C@H](NC(=O)[C@@H](NC(=O)[C@H](Cc1c[nH]c2ccccc12)NC(C)=O)[C@@H](C)O)C(=O)N[C@H]1CSSC[C@@H](C(=O)N[C@@H](Cc2c[nH]c3ccccc23)C(=O)N2CCC[C@H]2C(=O)N[C@H](CCCCNC(=O)CN2CCN(CC(=O)O)CCN(CC(=O)O)CCN(CC(=O)O)CC2)C(N)=O)NC(=O)[C@H](CC(=O)O)NC(=O)[C@H](Cc2cnc[nH]2)NC(=O)[C@H](Cc2ccc3ccccc3c2)NC(=O)[C@H](Cc2cccnc2)NC(=O)[C@H](CC(N)=O)NC1=O [compound 265, Ac-W-T-I-C(3)-N-(3Pya)-(2Nal)-H-D-C(3)-W-P-[D-Lys(DOTA)]-NH2] (Ac-WTICN[3Pal][2Nal]HDCWP[dK](DOTA)-NH2; disulfide 4-10) | < 1 nM | D (% IA/g > 10 in kidney) | A (0 < % IA/g ≤ 5 in tumor) | 
5 | CC(=O)N[C@@H](Cc1c[nH]c2ccccc12)C(=O)N[C@H](C(=O)N[C@H](C(=O)N[C@H]1CSSC[C@@H](C(=O)N[C@@H](Cc2c[nH]c3ccccc23)C(=O)N2CCC[C@H]2C(=O)N[C@H](CCCCNC(=O)CN2CCN(CC(=O)O)CCN(CC(=O)O)CCN(CC(=O)O)CC2)C(N)=O)NC(=O)[C@H](CC(=O)O)NC(=O)[C@H](Cc2cnc[nH]2)NC(=O)[C@H](Cc2ccc3ccccc3c2)NC(=O)[C@H](CC(N)=O)NC(=O)[C@H](CC2CCNCC2)NC1=O)C1CCCCC1)[C@@H](C)O [compound 280, Ac-W-T-(Chg)-C(3)-[3-(4-piperidinyl)-Ala]-N-(2Nal)-H-D-C(3)-W-P-[D-Lys(DOTA)]-NH2] (Ac-WT[Chg]C[Ala(piperidin-4-yl)]N[2Nal]HDCWP[dK](DOTA)-NH2; disulfide 4-10) | < 1 nM | C (0 < % IA/g ≤ 10 in kidney) | A (0 < % IA/g ≤ 5 in tumor) | 
6 | CCCCCCCCCCCCCCCC(=O)N[C@@H](CCC(=O)NCCOCCOCCOCCOCCOCCOCCOCCOCCOCCOCCOCCOCCOCCOCCOCCOCCOCCOCCOCCOCCOCCOCCOCCOCCC(=O)NCCCC[C@@H]1NC(=O)[C@H](Cc2ccc3ccccc3c2)NC(=O)[C@H](CC(N)=O)NC(=O)[C@H](CC2CCNCC2)NC(=O)[C@@H](NC(=O)[C@H](CCCC)N(C)C(=O)[C@@H](NC(=O)[C@H](Cc2c[nH]c3ccccc23)NC(C)=O)[C@@H](C)O)CSSC[C@@H](C(=O)N[C@@H](Cc2c[nH]c3ccccc23)C(=O)N2CCC[C@H]2C(=O)N[C@H](CCCCNC(=O)CN2CCN(CC(=O)O)CCN(CC(=O)O)CCN(CC(=O)O)CC2)C(N)=O)NC(=O)[C@H](CC(=O)O)NC1=O)C(=O)O [compound 427, Ac-W-T-(NMe-Nle)-C(3)-[3-(4-piperidinyl)-Ala]-N-(2Nal)-Lys(PEG24-[gE(C16)]-OH)-D-C(3)-W-P-[D-Lys(DOTA)]-NH2] (Ac-WT[NMeNle]C[Ala(piperidin-4-yl)]N[2Nal]K([PEG24-γGlu-Palmitoyl])DCWP[dK](DOTA)-NH2; disulfide 4-10) | 10 to 100 nM |  |  | 
7 | CC[C@H](C)[C@H](NC(=O)[C@@H](NC(=O)[C@H](Cc1c[nH]c2ccccc12)NC(C)=O)[C@@H](C)O)C(=O)N[C@H]1CSSC[C@@H](C(=O)N[C@@H](Cc2c[nH]c3ccccc23)C(=O)N2CCC[C@H]2C(=O)N[C@H](CCCCNC(=O)CN2CCN(CC(=O)O)CCN(CC(=O)O)CCN(CC(=O)O)CC2)C(N)=O)NC(=O)[C@H](CC(=O)O)NC(=O)[C@H](Cc2cnc[nH]2)NC(=O)[C@H](Cc2ccc3ccccc3c2)NC(=O)[C@H](CC(N)=O)NC(=O)[C@H](CCCCN)NC1=O [compound 451, Ac-W-T-I-C(3)-K-N-(2Nal)-H-D-C(3)-W-P-[D-Lys(DOTA)]-CONH2] (Ac-WTICKN[2Nal]HDCWP[dK](DOTA)-NH2; disulfide 4-10) |  | D (% IA/g > 10 in kidney) | A (0 < % IA/g ≤ 5 in tumor) | 
8 | Ac-W-T-I-C(3)-N-N-(2Nal)-(4Pya)-D-C(3)-W-P-[D-Lys(DOTA)]-NH2 [compound 367] | < 1 nM |  |  | 
